Where two headings read alike, the source gives them in different places. Numbered stars: 1 amine (or outer) side, 2 acyl side, 3 side chain; on linkers, the order of the positions; unused ones are H or OH. Bridge positions count the residues as written; N and C are the ends. Square brackets hold non-standard residues; d marks the D form. Peptide text beside a SMILES is read from it. Trimesoyl = O=C(c1cc(C(=O)[*:2])cc(C(=O)[*:3])c1)[*:1]; 2Nal = N[C@@H](Cc1ccc2ccccc2c1)C(=O)O; Dap = NC[C@H](N)C(=O)O; βAla = NCCC(=O)O
Key:
[1] = Proteolytic stability in human serum (analytical HPLC)
Procedure: The proteolytic stability of peptide 7 was assessed by incubation in human serum at 37° C. and quantitation of the remaining peptide as a function of time by analytical HPLC.

[2] = tested on: HeLa cells; assay: Cellular uptake of FITC-labeled peptides by flow cytometry; settings: for Permeability (%), cellular uptake efficiency: FITC-labeled peptide 5 μM, 2 h, relative to CPP1 (100%); for Permeability (%), cellular uptake efficiency / cellular entry efficiency (in words): HeLa cells; for cellular entry efficiency (in words): flow cytometry
Procedure: (§1) For flow cytometry analysis, HeLa cells were seeded into 12-well plates (1.5×10^5 cells per well) 24 hours before treatment. The next day, 5 μM FITC-labeled peptide in DMEM containing 10% FBS was added to each well and allowed to incubate at 37° c. for 2 hours. […] This washing process was repeated once to remove any free compound and left over trypsin. The washed pellet was resuspended in DPBS with 1% FBS and analyzed on a BD LSR II flow cytometer. Data presented were the mean±SD of three independent experiments.

[3] = tested on: HeLa cells
Procedure: as §1

[4] = molecular target: T1, NEMO-IKKβ interaction (Homo sapiens, UniProt Q9Y6K9); assay: HTRF assay of inhibition of the NEMO-IKKβ interaction; format: binding; settings: for NEMO-binding affinity on Ala substitution (in words): alanine scan of peptide 7; for fold lower NEMO-binding affinity / potency: relative to peptide 7
T1 construct: cells were transformed with a pGEX4T3-NEMO(1-196) plasmid; made in house; host or cells: Escherichia coli BL21(DE3)
T1 sequence (Q9Y6K9 1-196): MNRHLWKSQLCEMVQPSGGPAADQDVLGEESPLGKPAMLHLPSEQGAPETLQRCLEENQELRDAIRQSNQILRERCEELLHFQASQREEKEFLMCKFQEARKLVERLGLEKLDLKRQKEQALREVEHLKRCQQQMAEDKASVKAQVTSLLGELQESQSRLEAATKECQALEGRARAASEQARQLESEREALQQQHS
Procedure: Recombinant GST-NEMO (20 nM), biotin-IKKβKK/RR(701-745) (50 nM), streptavidin labeled with d2 acceptor (2.5 μg/mL), anti-GST monoclonal antibody labeled with Tb donor (2.5 μg/mL), and varying concentrations of peptide (O-100 μM) were mixed in PBS containing 1 mM TCEP and 0.01% Triton X-100 (total volume 20 μL) in a 384-well plate. […] The HTRF signals were measured on a Tecan Infinite M1000 Pro microplate reader and plotted as a function of the peptide concentration. The data was analyzed using GraphPad Prism 6.0 and IC50 values were obtained by fitting the data to the dose-response inhibition curves. Data presented were the mean±SD of three independent experiments.
Expression of GST-NEMO was induced by the addition of isopropyl β-D-1-thiogalactopyranoside (150 μM final concentration). After five hours at 30° C., the cells were harvested by centrifugation. The cell pellet was suspended in 40 mL of lysis buffer (50 mM Tris-HCl, 100 mM NaCl, 0.5 mM MgCl2, 5 mM O-mercaptoethanol, 0.1% Triton-X-100, pH 8.0), 100 μg/mL lysozyme, 100 μL of DNAse I (New England BioLabs), and 100 μL of Halt Protease Inhibitor Cocktail (EDTA-free) (Thermo Scientific). This mixture was stirred at 4° C. for 30 min and briefly sonicated (2×10 s pulses). The crude lysate was centrifuged to yield a clear supernatant, which was directly loaded onto a glutathione-Sepharose 4B column (GE Healthcare). The bound protein was eluted from the column with 10 mM glutathione in 50 mM Tris-HCl (pH 8.0), concentrated to 0.5 mL with the use of Amicon Ultra-15 centrifugal filter units (MWCO 10 kDa), and dialyzed against PBS before flash freezing.
His-thx-IKKbKK/RR(701-745) was similarly expressed in E. coli BL21 (DE3) cells and purified by affinity chromatography using a HisTrap FF column (GE Healthcare). The fusion protein was eluted with 50 mM Tris-HCl (pH 8.0), 300 mM NaCl, 250 mM imidazole, 2 mM O-mercaptoethanol and treated with TEV protease (150 units for 1 mg of fusion protein) for 16 hours at 4° C. to remove the thioredoxin (thx). The resulting protease digestion mixture was reloaded onto the HisTrap column The flow-through fraction was collected and concentrated to about 2 mg/mL using Amicon Ultra-15 centrifugal filter units (MWCO 10 kDa). The IKKbKK/RR(701-745) peptide was biotinylated by treatment with a 10-fold molar excess of biotin-NHS at 4° C. overnight. The biotinylated IKKbKK/RR(701-745) was purified by reversed-phase HPLC equipped with a C18 column and stored frozen at −80° C.

[5] = tested on: NF-κB activation in HEK293(Luc) cells; assay: NF-κB luciferase assay; format: cell-based
Procedure: The ability of the bicyclic peptidyl inhibitors to inhibit NF-κB Signaling was analyzed. The ability of peptide 7 to enter the cell and block the intracellular NEMO-IKK interaction was assessed by using HEK293(Luc) cells, which harbor a luciferase gene under the transcriptional control of NF-κB. For the NF-κB Luciferase Assays, culture media was exchanged for DMEM containing 10% FBS and 1% penicillin/streptomycin the day before seeding to remove hygromycin B. HEK293(Luc) cells were seeded in 50 μL of assay medium (DMEM, 10% FBS, and 1% penicillin/streptomycin) in an opaque 96-well microplate (3000 cells per well) and incubated overnight. The peptide inhibitors were added to the cells the next day in 5 μL of assay medium and the plate was incubated at 37° c. for 2 h. After that, 5 μL of assay media containing recombinant TNFα (final concentration 5 ng/mL) was added to the wells. The plate was then returned to the incubator for 4 h at 37° c. Finally, 50 μL of ONE-Step luciferase assay reagent was added to each well and after 10 minutes the luminescence was measured on a Tecan Infinite M1000 Pro microplate reader. Data presented were the mean±SD of at least three independent experiments (n=6 for basal activities).

[6] = tested on: A2780 cells; assay: MTT cell viability assay, A2780; format: cell-based; settings: 72 hours
Procedure: For the MTT cell viability assay, HeLa, HEK293, A2780, OSE or A375 cells were seeded into a 96-well microplate (3000 cells/well) in 100 μl of respective growth media and incubated at 37° c. overnight. The next day, a serial dilution of peptide was added to each well in 10 μL of assay medium. The treated cells were incubated at 37° c. with 5% CO2 for 72 hours. Following compound treatment, 10 μL of MTT stock solution (Roche) was added to each well. After an additional 4 h at 37° C., 100 μL of SDS-HCl solubilizing solution was added to each well and the plate was returned to the incubator overnight at 37° c. A Tecan Infinite M1000 Pro microplate reader was used the following morning to measure the absorbance of the formazan product at 565 nm.

SMILES: CC[C@H](C)[C@H](NC(=O)[C@H](CCCCN)NC(=O)[C@@H](NC(=O)[C@H](CCC(N)=O)NC(=O)[C@@H](N)CCCNC(=N)N)[C@@H](C)CC)C(=O)N[C@@H](Cc1c[nH]c2ccccc12)C(=O)N[C@@H](Cc1ccccc1)C(=O)N[C@@H](CCC(N)=O)C(=O)N[C@@H](CC(N)=O)C(=O)N[C@@H](CCCNC(=N)N)C(=O)N[C@@H](CCCNC(=N)N)C(=O)N[C@@H](CCSC)C(=O)N[C@@H](CCCCN)C(=O)N[C@@H](Cc1c[nH]c2ccccc12)C(=O)N[C@@H](CCCCN)C(=O)N[C@@H](CCCCN)C(=O)NCC(=O)NCC(=O)N[C@H](C(=O)N[C@@H](C)C(=O)N[C@@H](CC(C)C)C(=O)N[C@@H](CC(=O)O)C(=O)N[C@@H](Cc1c[nH]c2ccccc12)C(=O)N[C@@H](CO)C(=O)N[C@@H](Cc1c[nH]c2ccccc12)C(=O)N[C@@H](CC(C)C)C(=O)N[C@@H](CCC(N)=O)C(=O)N[C@H](C(=O)N[C@@H](CCC(=O)O)C(=O)O)[C@@H](C)O)[C@@H](C)O [Peptide 1, reference compound]
- half-life [1]: ~20 min
- Permeability (%), cellular uptake efficiency [2]: 35%

SMILES: CC[C@H](C)[C@@H]1NC(=O)[C@H](Cc2c[nH]c3ccccc23)NC(=O)CNC(=O)c2cc3cc(c2)C(=O)NC[C@H](NC(=O)[C@H](Cc2ccc(O)cc2)NC1=O)C(=O)N[C@@H](Cc1ccccc1)C(=O)N[C@@H](Cc1ccc2ccccc2c1)C(=O)N[C@@H](CCCNC(=N)N)C(=O)N[C@@H](CCCNC(=N)N)C(=O)N[C@@H](CCCNC(=N)N)C(=O)N[C@H](C(=O)NCCC(=O)NCCC(=O)N[C@@H](CCCCN)C(=O)O)CNC3=O [Peptide 2, Tm(GWIY)Δ(FΦRRRΔ)-BBK] (GWIY[Dap]F[2Nal]RRR[Dap][βAla][βAla]K-OH; linker N-5-11 via Trimesoyl; C-terminus assumed)
- Permeability (%), cellular uptake efficiency [2]: 76%

SMILES: CC[C@H](C)[C@@H]1NC(=O)[C@H](Cc2c[nH]c3ccccc23)NC(=O)CNC(=O)c2cc3cc(c2)C(=O)NC[C@H](NC(=O)[C@H](Cc2ccc(O)cc2)NC1=O)C(=O)N[C@@H](Cc1ccccc1)C(=O)N[C@@H](Cc1ccc2ccccc2c1)C(=O)N[C@@H](CCCNC(=N)N)C(=O)N[C@@H](CCCNC(=N)N)C(=O)N[C@@H](CCCNC(=N)N)C(=O)N[C@@H](CCCNC(=N)N)C(=O)N[C@H](C(=O)NCCC(=O)NCCC(=O)N[C@@H](CCCCN)C(=O)O)CNC3=O [Peptide 3, Tm(GWIY)Δ(FΦRRRRΔ)-BBK] (GWIY[Dap]F[2Nal]RRRR[Dap][βAla][βAla]K-OH; linker N-5-12 via Trimesoyl; C-terminus assumed)
- cellular entry efficiency (in words) [3]: slightly decreased the cellular entry efficiency

SMILES: CC[C@H](C)[C@@H]1NC(=O)[C@H](Cc2c[nH]c3ccccc23)NC(=O)CNC(=O)c2cc3cc(c2)C(=O)NC[C@H](NC(=O)[C@H](Cc2ccc(O)cc2)NC1=O)C(=O)N[C@@H](Cc1ccccc1)C(=O)N[C@@H](Cc1ccc2ccccc2c1)C(=O)N[C@@H](CCCNC(=N)N)C(=O)N[C@@H](CCCNC(=N)N)C(=O)N[C@@H](CCCNC(=N)N)C(=O)N[C@H](C(=O)N[C@@H](CCCNC(=N)N)C(=O)NCCC(=O)N[C@@H](CCCCN)C(=O)O)CNC3=O [Peptide 4, Tm(GWIY)Δ(FΦRRRΔ)-RBK] (GWIY[Dap]F[2Nal]RRR[Dap]R[βAla]K-OH; linker N-5-11 via Trimesoyl; C-terminus assumed)
- Permeability (%), cellular uptake efficiency [2]: 71%
- cellular entry efficiency (in words) [2]: slightly decreased the cellular entry efficiency

SMILES: CC[C@H](C)[C@@H]1NC(=O)[C@H](Cc2c[nH]c3ccccc23)NC(=O)CNC(=O)c2cc3cc(c2)C(=O)NC[C@@H](C(=O)N[C@H](CCCNC(=N)N)C(=O)NCCC(=O)N[C@@H](CCCCN)C(=O)O)NC(=O)[C@H](CCCNC(=N)N)NC(=O)[C@H](CCCNC(=N)N)NC(=O)[C@H](CCCNC(=N)N)NC(=O)[C@H](Cc2ccc4ccccc4c2)NC(=O)[C@H](Cc2ccccc2)NC(=O)[C@H](CNC3=O)NC(=O)[C@H](Cc2ccc(O)cc2)NC1=O [Peptide 5, Tm(GWIY)Δ(FΦRRRΔ)-rBK] (GWIY[Dap]F[2Nal]RRR[Dap][dR][βAla]K-OH; linker N-5-11 via Trimesoyl; C-terminus assumed)
- Permeability (%), cellular uptake efficiency [2]: 71%
- cellular entry efficiency (in words) [2]: slightly decreased the cellular entry efficiency

SMILES: CC[C@H](C)[C@@H]1NC(=O)[C@H](Cc2c[nH]c3ccccc23)NC(=O)CNC(=O)c2cc3cc(c2)C(=O)NC[C@H](NC(=O)[C@H](Cc2ccc(O)cc2)NC1=O)C(=O)N[C@@H](Cc1ccccc1)C(=O)N[C@@H](Cc1ccc2ccccc2c1)C(=O)N[C@@H](CCCNC(=N)N)C(=O)N[C@H](CCCNC(=N)N)C(=O)N[C@@H](CCCNC(=N)N)C(=O)N[C@H](C(=O)NCCC(=O)NCCC(=O)N[C@@H](CCCCN)C(=O)O)CNC3=O [Peptide 6, Tm(GWIY)Δ(FΦRrRΔ)-BBK] (GWIY[Dap]F[2Nal]R[dR]R[Dap][βAla][βAla]K-OH; linker N-5-11 via Trimesoyl; C-terminus assumed)
- Permeability (%), cellular uptake efficiency [2]: 322%
- increase of uptake efficiency ([2]; second arginine replaced with D-arginine, versus peptide 2): 4.2 fold

SMILES: CC[C@H](C)[C@@H]1NC(=O)[C@H](Cc2c[nH]c3ccccc23)NC(=O)CNC(=O)c2cc3cc(c2)C(=O)NC[C@@H](C(=O)NCCC(=O)NCCC(=O)N[C@@H](CCCCN)C(=O)O)NC(=O)[C@H](CCCNC(=N)N)NC(=O)[C@@H](CCCNC(=N)N)NC(=O)[C@H](CCCNC(=N)N)NC(=O)[C@H](Cc2ccc4ccccc4c2)NC(=O)[C@H](C)NC(=O)[C@H](CNC3=O)NC(=O)[C@H](C)NC(=O)[C@H](Cc2ccc(O)cc2)NC1=O [Peptide 15, Tm(GWIYA)Δ(AΦRrRΔ)-BBK] (GWIYA[Dap]A[2Nal]R[dR]R[Dap][βAla][βAla]K-OH; linker N-6-12 via Trimesoyl; C-terminus assumed)
- NEMO-binding affinity on Ala substitution (in words) [4]: significantly de-creased the NEMO-binding affinity

SMILES: CC[C@H](C)[C@@H]1NC(=O)[C@H](Cc2c[nH]c3ccccc23)NC(=O)CNC(=O)c2cc3cc(c2)C(=O)NC[C@@H](C(=O)NCCC(=O)NCCC(=O)N[C@@H](CCCCN)C(=O)O)NC(=O)[C@H](CCCNC(=N)N)NC(=O)[C@@H](CCCNC(=N)N)NC(=O)[C@H](CCCNC(=N)N)NC(=O)[C@H](C)NC(=O)[C@H](Cc2ccccc2)NC(=O)[C@H](CNC3=O)NC(=O)[C@H](C)NC(=O)[C@H](Cc2ccc(O)cc2)NC1=O [Peptide 16, Tm(GWIYA)Δ(FARrRΔ)-BBK] (GWIYA[Dap]FAR[dR]R[Dap][βAla][βAla]K-OH; linker N-6-12 via Trimesoyl; C-terminus assumed)
- NEMO-binding affinity on Ala substitution (in words) [4]: significantly de-creased the NEMO-binding affinity

SMILES: CC[C@H](C)[C@@H]1NC(=O)[C@H](C)NC(=O)CNC(=O)c2cc3cc(c2)C(=O)NC[C@@H](C(=O)NCCC(=O)NCCC(=O)N[C@@H](CCCCN)C(=O)O)NC(=O)[C@H](CCCNC(=N)N)NC(=O)[C@@H](CCCNC(=N)N)NC(=O)[C@H](CCCNC(=N)N)NC(=O)[C@H](Cc2ccc4ccccc4c2)NC(=O)[C@H](Cc2ccccc2)NC(=O)[C@H](CNC3=O)NC(=O)[C@H](C)NC(=O)[C@H](C)NC1=O [Peptide 20, Tm(GAIAA)Δ(FΦRrRΔ)-BBK] (GAIAA[Dap]F[2Nal]R[dR]R[Dap][βAla][βAla]K-OH; linker N-6-12 via Trimesoyl; C-terminus assumed)
- effect on TNFα-induced luciferase activity (in words) [5]: decreased the luciferase activity only at high concentrations
- fold lower NEMO-binding affinity / potency [4]: 16 fold
- activity on A2780 viability (in words) [6]: much less active than peptide 7

SMILES: C[C@@H]1NC(=O)CNC(=O)c2cc3cc(c2)C(=O)NC[C@@H](C(=O)NCCC(=O)NCCC(=O)N[C@@H](CCCCN)C(=O)O)NC(=O)[C@H](CCCNC(=N)N)NC(=O)[C@@H](CCCNC(=N)N)NC(=O)[C@H](CCCNC(=N)N)NC(=O)[C@H](Cc2ccc4ccccc4c2)NC(=O)[C@H](Cc2ccccc2)NC(=O)[C@H](CNC3=O)NC(=O)[C@H](C)NC(=O)[C@H](C)NC(=O)[C@H](C)NC1=O [Peptide 21, Tm(GAAAA)Δ(FΦRrRΔ)-BBK] (GAAAA[Dap]F[2Nal]R[dR]R[Dap][βAla][βAla]K-OH; linker N-6-12 via Trimesoyl; C-terminus assumed)
- effect on TNFα-induced luciferase activity (in words) [5]: decreased the luciferase activity only at high concentrations
- fold lower NEMO-binding affinity / potency [4]: > 100 fold
- activity on A2780 viability (in words) [6]: much less active than peptide 7
